The nature of the series: Pharmacokinetic evaluation in mice, single intragastric administration. The format is in vivo, CD-1 mice (male). To be noted: 300 mpk, male CD-1 mice, plasma. The protocol: Experimental Purposes: To Test the Pharmacokinetics of the Compound in Mice
CD-1 mice (male), vehicle (0.5% (w/v) methylcellulose 0.5% (v/v) Tween 80 aqueous solution), trifluoroacetate salt of compound 0027.
Animals in groups 1 and 2 were given 5 mg/mL and 30 mg/mL compound by single intragastric administration, respectively, with a dose volume of 10 mL/kg.
The animals were weighed before administration, and the administration volume was calculated according to the body weight.
Whole blood samples (30 μL) were collected at specified times (0.25, 0.5, 1, 2, 4, 6, 8, 24 hours) by saphenous vein collection and the actual time of collection was recorded in the test record. The acceptable error for the collection time points was ±1 minute for time points within 1 hour of administration and ±5% of the theoretical time for other time points.
All blood samples were immediately transferred to labeled commercial centrifuge tubes containing K2-EDTA. After blood samples were collected, the blood samples were centrifugated at 4° C. and 3200 rpm for 10 minutes, and the supernatant plasma was aspirated, and then quickly put into dry ice at a temperature of −20° C. or lower for LC-MS/MS analysis. And the pharmacokinetic parameters were calculated, and experimental result: See Table 5.

`COc1cc(OC)c(Cl)c(-c2nc(-c3nc(-c4cn(C)nc4C)cnc3N)cn(C)c2=O)c1` returned a Tlast of 24.0 h.

These data come from patent US11603366B2, “Crystalline form and B crystalline form of pyrazine-2(1H)-ketone compound and preparation method thereof” (ZHANGZHOU PIEN TZE HUANG PHARMACEUTICAL CO., LTD., priority 2019, dated 2023).
